Some results are limits rather than exact numbers.

Series [1] in a line: Rat pharmacokinetic studies, intramuscular. The note with it: for Mean conc Nalmefene: rat plasma, IM, 86 mg/ml at 17 mg/kg. In kind it is in vivo, male Sprague Dawley Rats. The method, then: The purpose of this study is to determine the pharmacokinetics of test compounds in plasma, following intramuscular administration to male Sprague Dawley Rats (n=3, unless otherwise specified).
The dose formulation of 400 mg base equivalents/ml in sesame oil+1% benzyl alcohol (unless otherwise specified) was administered by intramuscular injection. The dose volume was determined by the animals' body weight determined on the morning of dosing day.
Each collected blood sample was centrifuged for 4 minutes at 4° C. and 10000 rpm for plasma collection. Plasma was collected and transferred into a pre-labeled PP tube in dry ice at each time point and precipitated immediately using ACN at a ratio of 1:4 (plasma:ACN). Centrifuged again (10 minutes, 12000 rpm) and obtain the supernatant.
After terminal collection, all supernatant was stored at approximately −80° C. until bioanalysis.
LC-MS/MS methods for the quantitative determination of test compound in biological matrix were developed. […] The sample analysis was performed concurrently with a set of calibration standards and two sets of QC samples using the LC-MS/MS method.
Plasma concentration versus time data was analyzed by non-compartmental approaches using the Phoenix WinNonlin 6.3 software program. Cmax, Tmax, T1/2, AUC(0-t), AUC(0-inf), MRT(0-t), MRT(0-inf) and graphs of plasma concentration versus time profile were prepared.

The nature of series [2]: Plasma stability assay, rat plasma. The class given is in vitro ADME. The note with it: 37° C., 10 μM. The procedure: Plasma stability determination of the test compounds in rat, dog, cynomolgus monkey and human plasma is performed using HPLC-MS. For rat, incubations are carried out in 96-well polypropylene plates in 5 aliquots of 70 μL each (one for each time point). […] Five time points are analyzed (0, 15, 120, 480 and 1440 min). For dog, monkey and human, test compounds (2 μM, final solvent concentration 1%) were also incubated at 37° C. and analyzed at five time points (0, 10, 30, 60 and 120 min). All incubations are performed in duplicates. The samples are analyzed by HPLC-MS. The percentage of parent compound remaining after incubation in plasma is determined.

Series [3] in a line: Dog clinical observations after intramuscular dosing. In kind it is in vivo, Beagle dogs. The conditions noted are these: dog D1502, compound 18 at 48 mg/kg; earlier weight, reported at 96 hr. The procedure: Weight monitoring was done every week.
The dose formulation (concentration−400 mg base equivalents/ml in sesame oil+1% benzyl alcohol, unless otherwise specified) was administered via deep intramuscularly (unless otherwise specified). The injection vehicle was also dosed via deep intramuscular route (unless otherwise specified) on contralateral site of each animal at study initiation. The animals were sedated with Propofol at 6 mg/kg via IV administration. Following sedation hair was carefully removed from around the injection site and the area gently cleaned. Care will be taken to avoid irritating skin during shaving and cleaning the injection site. Then dogs will be dosed with deep IM administration. At least 2.5 cm depth from the surface into the central aspect of the quadriceps or biceps femoris muscle, by angling the needle toward the femur. If the needle hits the femur, simply draws back slightly and then inject. The dose volume will be determined by the animals' body weight collected on the morning of dosing day. For repeated administration, the injection sites may be rotated to minimize tissue injury.

A short description of series [4]: Solubility determination in oil (cottonseed oil, sesame oil). The conditions noted are these: heating temp. 60 °C. The method, then: A known amount of test substance (˜40 mg) was weighed into the vial, 100 μL of oil was added and heated to 60° C. and then system was slurried to reach equilibrium. […] Extra oil was added into the vial once compound precipitated out and then the system was re-equilibrated at 1000 rpm at room temperature (25° C.). Final concentration was determined by HPLC method as described below in Table 6a and 6b.

The mark [5] stands for this setting: rat IM, 17 mg/kg, Sesame oil + 1% Benzyl Alcohol.

`C=C1CC[C@@]2(O)C3Cc4ccc(OC(=O)CCCCCCCCCCC)c5c4[C@@]2(CCN3CC2CC2)[C@H]1O5` [Compound 59, (4aS,7aS,12bS)-3-(cyclopropylmethyl)-4a-hydroxy-7-methylene-2,3,4,4a,5,6,7,7a-octahydro-1H-4,12-methanobenzofuro(3,2-c]isoquinolin-9-yl dodecanoate, reference compound]: the “AUC0-inf (ng · h/mL) nalmefene” value in series [1] (setting [5]) stood at 1026 ng·h/mL. Also, in series [1] (setting [5]), the “AUC0-inf (ng · h/mL) prodrug” value was 10.4 ng·h/mL. In series [1] (setting [5]), the “Half-life t1/2 (hour) prodrug” value is 15.2 h. In addition, the “Terminal Half-life t1/2 (hour) nalmefene” value in series [1] (setting [5]) was 248 h. Further, the “Mean conc Nalmefene” value in series [1] (1.00 h) worked out at 7.85 ng/mL; in series [1] (2.00 h), 8.10 ng/mL; in series [1] (4.00 h), 7.45 ng/mL; in series [1] (8.00 h), 6.85 ng/mL; in series [1] (24.0 h), 6.96 ng/mL; in series [1] (48.0 h), 7.92 ng/mL. For the same compound, the “Mean conc Nalmefene” value in series [1] (72.0 h) turned out to be 5.77 ng/mL; in series [1] (144 h), 1.59 ng/mL; in series [1] (312 h), 0.403 ng/mL; in series [1] (480 h), 0.235 ng/mL; in series [1] (648 h), 0.145 ng/mL. Moreover, the “% remaining at time point in minutes, 0 min” value in series [2] was found to be 100%. For the same compound, in series [2], the “% remaining at time point in minutes, 15 min” value (from here on “% remaining … 15 min”) is given as 5.9%. In series [2], the “% remaining at time point in minutes, 120 min” value (from here on “% remaining … 120 min”) came to 0.7%. Further, the “% remaining at time point in minutes, 480 min” value (shortened to “% remaining … 480 min”) in series [2] worked out at 0.2%. For the same compound, the “% remaining at time point in minutes, 1440 min” value (“% remaining … 1440 min” below) in series [2] turned out to be 0%.

As to `C=C1CC[C@@]2(O)C3Cc4ccc(OC(=O)OCCCCCCCCCC)c5c4[C@@]2(CCN3CC2CC2)[C@H]1O5` [Compound 18, (4aS,7aS,12bS)-3-(cyclopropylmethyl)-4a-hydroxy-7-methylene-2,3,4,4a,5,6,7,7a-octahydro-1H-4,12-methanobenzofuro[3,2-e]isoquinolin-9-yl decyl carbonate], the “weight decreases from (earlier weight), D1502” value in series [3] was 7.76 kg. Moreover, in series [2], the “% remaining at time point in minutes, 0 min” value amounted to 100%; the “% remaining … 15 min” value is on record as 0.6%; the “% remaining … 120 min” value was determined as 0.3%; the “% remaining … 480 min” value is given as 0.1%. Moreover, the “% remaining … 1440 min” value in series [2] came to 0%. Further, in series [4] (obs. temp. 25 °C), the “Approximate Solubility (mg/mL) in Excipient: Cottonseed oil” value (shortened to “Approximate Solubility … Cottonseed oil”) is given as above 400 mg/mL and the “Approximate Solubility (mg/mL) in Excipient: Sesame oil” value (“Approximate Solubility … Sesame oil” for short) is recorded as above 402 mg/mL.

With `C=C1CC[C@@]2(O)C3Cc4ccc(OC(=O)OCCCCCCCC)c5c4[C@@]2(CCN3CC2CC2)[C@H]1O5` [Compound 17, (4aS,7aS,12bS)-3-(cyclopropylmethyl)-4a-hydroxy-7-methylene-2,3,4,4a,5,6,7,7a-octahydro-1H-4,12-methanobenzofuro[3,2-e]isoquinolin-9-yl octyl carbonate], in series [2], the “% remaining at time point in minutes, 0 min” value is reported as 100%; the “% remaining … 15 min” value stood at 0%; the “% remaining … 120 min” value was 0%; the “% remaining … 480 min” value amounted to 0%. In series [2], the “% remaining … 1440 min” value amounted to 0%. The “Approximate Solubility … Cottonseed oil” value in series [4] (obs. temp. 25 °C) is above 408 mg/mL.

Take `C=C1CC[C@@]2(O)[C@H]3Cc4ccc(O)c5c4[C@@]2(CCN3CC2CC2)[C@H]1O5.Cl` [Nalmefene HCl-IR]: in series [1] (rat, 0.80 mg/kg, saline), the “AUC0-inf (ng · h/mL) nalmefene” value was 66.0 ng·h/mL and the “Terminal Half-life t1/2 (hour) nalmefene” value was 0.87 h.

Regarding `CCCCCCCCCCCCOC(=O)OCOc1ccc2c3c1O[C@H]1C(=O)CC[C@@]4(O)C(C2)N(CC2CC2)CC[C@]314` [Compound 29, (((4aS,7aR,12bS)-3-(cyclopropylmethyl)-4a-hydroxy-7-oxo-2,3,4,4a,5,6,7,7a-octahydro-1H-4,12-methanobenzofuro[3,2-e]isoquinolin-9-yl)oxy)methyl dodecyl carbonate], the “AUC0-inf (ng · h/mL) prodrug” value in series [1] (rat IM, 165 mg/kg, Sesame oil + 1% Benzyl Alcohol) is 74.8 ng·h/mL. Besides, the “Approximate Solubility … Sesame oil” value in series [4] (obs. temp. 25 °C) is above 416.5 mg/mL.

With `CCCCCCCCCCCCCC(=O)Oc1ccc2c3c1O[C@H]1C(=O)CC[C@@]4(O)C(C2)N(CC2CC2)CC[C@]314` [Compound 57, (4aS,7aR,12bS)-3-(cyclopropylmethyl)-4a-hydroxy-7-oxo-2,3,4,4a,5,6,7,7a-octahydro-1H-4,12-methanobenzofuro[3,2-e]isoquinolin-9-yl tetradecanoate], in series [2], the “% remaining at time point in minutes, 0 min” value is 100%; the “% remaining … 15 min” value is recorded as 10.5%; the “% remaining … 120 min” value is listed as 3.2%; the “% remaining … 480 min” value was determined as 1.2%. Moreover, the “% remaining … 1440 min” value in series [2] came out at 0%. Also, the “Approximate Solubility … Sesame oil” value in series [4] (obs. temp. 25 °C) was above 417.3 mg/mL.

Turning to `CCCCC/C=C\C/C=C\CCCCCCCC(=O)Oc1ccc2c3c1O[C@H]1C(=O)CC[C@@]4(O)C(C2)N(CC2CC2)CC[C@]314` [Compound 53, (4aS,7aR,12bS)-3-(cyclopropylmethyl)-4a-hydroxy-7-oxo-2,3,4,4a,5,6,7,7a-octahydro-1H-4,12-methanobenzofuro[3,2-e]isoquinolin-9-yl (9Z,12Z)-octadeca-9,12-di.enoate], in series [2], the “% remaining at time point in minutes, 0 min” value was found to be 100%; the “% remaining … 15 min” value was determined as 46.85%; the “% remaining … 120 min” value is given as 19.6%; the “% remaining … 480 min” value was 7.3%. Moreover, the “% remaining … 1440 min” value in series [2] is 1.9%. In series [4] (obs. temp. 25 °C), the “Approximate Solubility … Cottonseed oil” value is above 408.5 mg/mL and the “Approximate Solubility … Sesame oil” value is on record as above 401.9 mg/mL. For the same compound, the “Approximate Solubility … Sesame oil” value in series [4] (obs. temp. 40 °C) is recorded as above 406.3 mg/mL.

Turning to `CCCCCCCCCCCCCCCCCCCC(=O)Oc1ccc2c3c1O[C@H]1C(=O)CC[C@@]4(O)C(C2)N(CC2CC2)CC[C@]314` [Compound 50, (4aS,7aR,12bS)-3-(cyclopropylmethyl)-4a-hydroxy-7-oxo-2,3,4,4a,5,6,7,7a-octahydro-1H-4,12-methanobenzofuro[3,2-e]isoquinolin-9-yl icosanoate], in series [2], the “% remaining at time point in minutes, 0 min” value is on record as 100%; the “% remaining … 15 min” value stood at 114.5%; the “% remaining … 120 min” value is 102.7%; the “% remaining … 480 min” value came out at 83.3%. The “% remaining … 1440 min” value in series [2] is given as 73.9%. Also, in series [4] (obs. temp. 25 °C), the “Approximate Solubility … Sesame oil” value is reported as below 52 mg/mL.

The record behind these values is patent US10525055B2, “Opioid receptor antagonist prodrugs” (Nirsum Laboratories, Inc., priority 2017, dated 2020).
